Measurements as given in patent US10626144B2, “Peptide derivatives and uses thereof” (Nosopharm, priority 2014, dated 2020).
Numbered stars: 1 amine (or outer) side, 2 acyl side, 3 side chain; on linkers, the order of the positions; unused ones are H or OH. Square brackets hold non-standard residues; d marks the D form. Peptide text beside a SMILES is read from it. * marks the point of attachment. Pro(cis-4-CF3) = O=C(O)[C@@H]1C[C@H](C(F)(F)F)CN1; Phe(3-CONH2) = NC(=O)c1cccc(C[C@H](N)C(=O)O)c1; Phe(2,4-Me2) = Cc1ccc(C[C@H](N)C(=O)O)c(C)c1; Phe(3-CN) = N#Cc1cccc(C[C@H](N)C(=O)O)c1; Phe(4-Cl) = N[C@@H](Cc1ccc(Cl)cc1)C(=O)O; Dab(3S-OH) = NC[C@H](O)[C@H](N)C(=O)O; Phe(2-F) = N[C@@H](Cc1ccccc1F)C(=O)O; ΔZArg = N=C(N)NCC/C=C(\N)C(=O)O; Lys(Me) = CNCCCC[C@H](N)C(=O)O; X2 = CC=C(N[*:1])C(=O)[*:2]; dOrn = NCCC[C@@H](N)C(=O)O; Orn = NCCC[C@H](N)C(=O)O; Dab = NCC[C@H](N)C(=O)O; NH(CH2)4NH2 = NCCCCN*; NHiPr = CC(C)N*

Assays:
Assay in all cases: MIC, broth microdilution (CLSI), reference strain
Conditions in all cases: CAMHB
[1] = system: Staphylococcus aureus ATCC 13709
[2] = system: Pseudomonas aeruginosa ATCC 27853
[3] = system: Escherichia coli ATCC 25922
[4] = system: Acinetobacter baumannii ATCC 19606

Row | Sa: MIC Staphylococcus aureus ATCC 13709 [1] | Pa: MIC Pseudomonas aeruginosa ATCC 27853 [2] | Ec: MIC Escherichia coli ATCC 25922 [3] | Ab: MIC Acinetobacter baumannii ATCC 19606 [4] | Structure (SMILES)
1 | ++ (≤8 μg/mL) | − (>32 μg/mL) | ++ (≤8 μg/mL) | − (>32 μg/mL) | N=C(N)NCC/C=C(\NC(=O)[C@H](CCCCN)NC(=O)[C@H](Cc1cnc[nH]1)NC(=O)[C@@H]1CCCN1C(=O)[C@@H](CCCN)NC(=O)CNC(=O)[C@H](CCN)NC(=O)[C@@H](NC(=O)[C@@H](N)CCCCN)[C@@H](O)CN)C(=O)O [21.2] (H-K[Dab(3S-OH)][Dab]G[dOrn]PHK[ΔZArg]-OH)
2 | ++ (≤8 μg/mL) | − (>32 μg/mL) | ++ (≤8 μg/mL) | − (>32 μg/mL) | C[C@H](NC(=O)[C@@H](NC(=O)[C@@H](N)CCCCN)[C@@H](O)CN)C(=O)NCC(=O)N[C@H](CCCN)C(=O)N1CCC[C@H]1C(=O)N[C@@H](CCC(N)=O)C(=O)N[C@@H](CCCCN)C(=O)N/C(=C\CCNC(=N)N)C(=O)N[C@@H](CCCCN)C(=O)NCCCCN [24.21] (H-K[Dab(3S-OH)]AG[dOrn]PQK[ΔZArg]K-{NH(CH2)4NH2})
3 | ++ (≤8 μg/mL) | − (>32 μg/mL) | ++ (≤8 μg/mL) | − (>32 μg/mL) | N=C(N)NCC/C=C(\NC(=O)[C@H](CCCCN)NC(=O)[C@H](Cc1ccccc1F)NC(=O)[C@@H]1CCCN1C(=O)[C@@H](CCCN)NC(=O)CNC(=O)[C@H](CCCN)NC(=O)[C@@H](NC(=O)[C@@H](N)CCCCN)[C@@H](O)CN)C(=O)O [211.9] (H-K[Dab(3S-OH)][Orn]G[dOrn]P[Phe(2-F)]K[ΔZArg]-OH)
4 | ++ (≤8 μg/mL) | − (>32 μg/mL) | + (≤32 μg/mL) | − (>32 μg/mL) | Cc1ccc(C[C@H](NC(=O)[C@@H]2CCCN2C(=O)[C@@H](CCCN)NC(=O)CNC(=O)[C@H](C)NC(=O)[C@@H](NC(=O)[C@@H](N)CCCCN)[C@@H](O)CN)C(=O)N[C@@H](CCCCN)C(=O)N/C(=C\CCNC(=N)N)C(=O)O)c(C)c1 [24.78] (H-K[Dab(3S-OH)]AG[dOrn]P[Phe(2,4-Me2)]K[ΔZArg]-OH)
5 | ++ (≤8 μg/mL) | − (>32 μg/mL) | ++ (≤8 μg/mL) | − (>32 μg/mL) | N=C(N)NCC/C=C(\NC(=O)[C@H](CCCCN)NC(=O)[C@H](Cc1cnc[nH]1)NC(=O)[C@@H]1CCCN1C(=O)[C@@H](CCCN)NC(=O)CNC(=O)[C@@H](NC(=O)[C@@H](NC(=O)[C@@H](N)CCCCN)[C@@H](O)CN)[C@@H](O)CN)C(N)=O [22.31] (H-K[Dab(3S-OH)][Dab(3S-OH)]G[dOrn]PHK[ΔZArg]-NH2)
6 | − (>32 μg/mL) | − (>32 μg/mL) | − (>32 μg/mL) | − (>32 μg/mL) | N=C(N)NCC/C=C(\NC(=O)[C@H](CCCCN)NC(=O)[C@H](Cc1cccc(C(N)=O)c1)NC(=O)[C@@H]1CCCN1C(=O)[C@@H](CCCN)NC(=O)CNC(=O)[C@@H](NC(=O)[C@@H](NC(=O)[C@@H](N)CCCCN)[C@@H](O)CN)[C@@H](O)CN)C(=O)O [22.35] (H-K[Dab(3S-OH)][Dab(3S-OH)]G[dOrn]P[Phe(3-CONH2)]K[ΔZArg]-OH)
7 | ++ (≤8 μg/mL) | − (>32 μg/mL) | + (≤32 μg/mL) | − (>32 μg/mL) | C[C@H](NC(=O)[C@H](CCN)NC(=O)[C@@H](N)CCCCN)C(=O)NCC(=O)N[C@H](CCCN)C(=O)N1CCC[C@H]1C(=O)N[C@@H](Cc1cnc[nH]1)C(=O)N[C@@H](CCCCN)C(=O)N/C(=C\CCNC(=N)N)C(=O)N[C@@H](CCCCN)C(=O)NCCCCN [14.2] (H-K[Dab]AG[dOrn]PHK[ΔZArg]K-{NH(CH2)4NH2})
8 | ++ (≤8 μg/mL) | − (>32 μg/mL) | ++ (≤8 μg/mL) | − (>32 μg/mL) | CNCCCC[C@H](N)C(=O)N[C@H](C(=O)N[C@@H](C)C(=O)NCC(=O)N[C@H](CCCN)C(=O)N1CCC[C@H]1C(=O)N[C@@H](Cc1ccc(Cl)cc1)C(=O)N[C@@H](CCCCN)C(=O)N/C(=C\CCNC(=N)N)C(=O)O)[C@@H](O)CN [24.148] (H-[Lys(Me)][Dab(3S-OH)]AG[dOrn]P[Phe(4-Cl)]K[ΔZArg]-OH)
9 | ++ (≤8 μg/mL) | − (>32 μg/mL) | + (≤32 μg/mL) | − (>32 μg/mL) | C[C@H](NC(=O)[C@@H](NC(=O)[C@@H](N)CCCCN)[C@@H](O)CN)C(=O)NCC(=O)N[C@H](CCCN)C(=O)N1C[C@@H](C(F)(F)F)C[C@H]1C(=O)N[C@@H](Cc1cnc[nH]1)C(=O)N[C@@H](CCCCN)C(=O)N/C(=C\CCNC(=N)N)C(=O)O [24.143] (H-K[Dab(3S-OH)]AG[dOrn][Pro(cis-4-CF3)]HK[ΔZArg]-OH)
10 | ++ (≤8 μg/mL) | − (>32 μg/mL) | + (≤32 μg/mL) | − (>32 μg/mL) | C[C@H](NC(=O)[C@@H](NC(=O)[C@@H](N)CCCN)[C@@H](O)CN)C(=O)NCC(=O)N[C@H](CCCN)C(=O)N1CCC[C@H]1C(=O)N[C@@H](Cc1cnc[nH]1)C(=O)N[C@@H](CCCCN)C(=O)N/C(=C\CCNC(=N)N)C(N)=O [24.150] (H-[Orn][Dab(3S-OH)]AG[dOrn]PHK[ΔZArg]-NH2)
11 | ++ (≤8 μg/mL) | − (>32 μg/mL) | − (>32 μg/mL) | − (>32 μg/mL) | CC(=O)NCC[C@H](NC(=O)[C@@H](NC(=O)[C@@H](N)CCCCN)[C@@H](O)CN)C(=O)NCC(=O)N[C@H](CCCN)C(=O)N1CCC[C@H]1C(=O)N[C@@H](Cc1cnc[nH]1)C(=O)N[C@@H](CCCCN)C(=O)N/C(=C\CCNC(=N)N)C(N)=O [21.3] (H-K[Dab(3S-OH)][Dab](Ac)G[dOrn]PHK[ΔZArg]-NH2)
12 | ++ (≤8 μg/mL) | ++ (≤8 μg/mL) | + (≤32 μg/mL) | − (>32 μg/mL) | N=C(N)NCC/C=C(\NC(=O)[C@H](CCCCN)NC(=O)[C@H](Cc1cnc[nH]1)NC(=O)[C@@H]1CCCN1C(=O)[C@@H](CCCN)NC(=O)CNC(=O)[C@@H](NC(=O)[C@@H](NC(=O)[C@@H](N)CCCCN)[C@@H](O)CN)[C@@H](O)CN)C(=O)O [22.20] (H-K[Dab(3S-OH)][Dab(3S-OH)]G[dOrn]PHK[ΔZArg]-OH)
13 | ++ (≤8 μg/mL) | + (≤32 μg/mL) | ++ (≤8 μg/mL) | − (>32 μg/mL) | N=C(N)NCC/C=C(\NC(=O)[C@@H](CCCCN)NC(=O)[C@H](Cc1cnc[nH]1)NC(=O)[C@@H]1CCCN1C(=O)[C@@H](CCCN)NC(=O)CNC(=O)[C@@H](NC(=O)[C@@H](NC(=O)[C@@H](N)CCCCN)[C@@H](O)CN)[C@@H](O)CN)C(=O)N[C@@H](CCCCN)C(=O)NCCCCN [22.11] (H-K[Dab(3S-OH)][Dab(3S-OH)]G[dOrn]PH[dK][ΔZArg]K-{NH(CH2)4NH2})
14 | ++ (≤8 μg/mL) | − (>32 μg/mL) | + (≤32 μg/mL) | − (>32 μg/mL) | CC=C(NC(=O)[C@H](CCCCN)NC(=O)[C@H](Cc1cnc[nH]1)NC(=O)[C@@H]1CCCN1C(=O)[C@@H](CCCN)NC(=O)CNC(=O)[C@H](C)NC(=O)[C@@H](NC(=O)[C@@H](N)CCCCN)[C@@H](O)CN)C(=O)N[C@@H](CCCCN)C(=O)NCCCCN [24.8] (H-K[Dab(3S-OH)]AG[dOrn]PHK[X2]K-{NH(CH2)4NH2})
15 | ++ (≤8 μg/mL) | − (>32 μg/mL) | − (>32 μg/mL) | − (>32 μg/mL) | C[C@H](NC(=O)[C@@H](NC(=O)[C@@H](N)CCCCN)[C@@H](O)CN)C(=O)NCC(=O)N[C@H](CCCN)C(=O)N1CCC[C@H]1C(=O)N[C@@H](Cc1cnc[nH]1)C(=O)N[C@@H](CCCN)C(=O)N[C@H](CCCNC(=N)N)C(N)=O [24.128] (H-K[Dab(3S-OH)]AG[dOrn]PH[Orn][dR]-NH2)
16 | ++ (≤8 μg/mL) | − (>32 μg/mL) | + (≤32 μg/mL) | − (>32 μg/mL) | CC(C)NC(=O)/C(=C/CCNC(=N)N)NC(=O)[C@H](CCCCN)NC(=O)[C@H](Cc1cnc[nH]1)NC(=O)[C@@H]1CCCN1C(=O)[C@@H](CCCN)NC(=O)CNC(=O)[C@H](C)NC(=O)[C@@H](NC(=O)[C@@H](N)CCCCN)[C@@H](O)CN [24.162] (H-K[Dab(3S-OH)]AG[dOrn]PHK[ΔZArg]-NHiPr)
17 | ++ (≤8 μg/mL) | − (>32 μg/mL) | ++ (≤8 μg/mL) | − (>32 μg/mL) | N=C(N)NCC/C=C(\NC(=O)[C@H](CCCCN)NC(=O)[C@H](Cc1ccccc1F)NC(=O)[C@@H]1CCCN1C(=O)[C@@H](CCCN)NC(=O)CNC(=O)[C@@H](NC(=O)[C@@H](NC(=O)[C@@H](N)CCCCN)[C@@H](O)CN)[C@@H](O)CN)C(=O)O [22.33] (H-K[Dab(3S-OH)][Dab(3S-OH)]G[dOrn]P[Phe(2-F)]K[ΔZArg]-OH)
18 | ++ (≤8 μg/mL) | − (>32 μg/mL) | + (≤32 μg/mL) | − (>32 μg/mL) | C[C@H](NC(=O)[C@@H](NC(=O)[C@@H](N)CCCCN)[C@@H](O)CN)C(=O)NCC(=O)N[C@H](CCCN)C(=O)N1CCC[C@H]1C(=O)N[C@@H](Cc1cccc(C#N)c1)C(=O)N[C@@H](CCCCN)C(=O)N/C(=C\CCNC(=N)N)C(=O)O [24.89] (H-K[Dab(3S-OH)]AG[dOrn]P[Phe(3-CN)]K[ΔZArg]-OH)
